Experimental findings from patent US20080064665A1, “Combination approaches to cancer treatment” (priority 2006, published 2008) are described below.

Several values for one entry are separate records, joined by “and”; a condition that tells them apart may be missing. Equal entries are not always repeated.

For data set [1], the system named is SiHa cervical cancer xenografts. Put plainly: Excision assay of SiHa xenografts (clonogenic log cell kill). It counts as in vivo, CD-1 Fox^nu mice. Particulars: SN 28343 91.2 mg/kg, SN 29303 375 mg/kg; for cell kill versus controls in excision assay (in words): SiHa human cervical tumor xenograft, docetaxel 65 mg/kg i.p.; for Log Cell Kill versus controls (Mean ± SEM): SiHa tumors excised 18 hours after treatment, docetaxel 65 mg/kg, i.p. Here is the method: As for Part 1 except for except where noted below.
(§1) Excess compound was discarded.
Date, body weights (used to adjust injection volume), tumor diameter, unique identifier (tail markings), body weight, and volume to be injected were recorded. Animals were dosed with the test articles i.p. following a defined treatment schedule:
18 hours after treatment the mice were culled by cervical dislocation and tumors removed by dissection, in a sterile laminar flow hood. Whole tumor weights were recorded. Tumors were minced using scissors or scalpels until a fine minceate was obtained, and up to 500 mg of minceate was transferred into a pre-tiered Falcon®14 ml test tube containing a sterile magnetic spin bar and re-weighed.
Samples were then incubated in 37° C. water bath for 30 min over a magnetic stirrer.
After incubation any undissociated material was allowed to settle for 1 minute. […] Pellets were re-suspended in 10 ml of medium. Cells/ml was determined using an electronic particle counter (Beckman Coulter Electronics, Z2 model). Samples were then diluted to 1×10^5cells/ml and 6-fold serial dilutions made down to 4.6×10^2cells/ml.
1 ml of each sample was plated in triplicate for each dilution into appropriately labelled Falcon® P-60 tissue culture dishes containing 4 ml of αMEM+10% FCS+PS.
Where possible, all plates were counted; those colonies counted=larger than 50 cells, confirmed with the light microscope. TMTC was recorded for those plates where there were too many colonies to count.
The criteria for selecting the best dilution to use for calculating plating efficiency (PE):
Higher dilution count>100 colonies (average); lower dilution 10-100 colonies, use PE from the dilution with fewer colonies.
Higher dilution count >100; lower dilution count <20, use average data from both.
Higher dilution count <100; lower dilution count <20, use PE from the dilution with more colonies.
Higher dilution count <100; lower dilution count >20, use average data from both. Note: For the 10^5 dilution, take as the “lower limit” colony count a total count of 30, (sum of all replicates).
On the technique in general: Xenograft models place foreign cells or tissue in a host animal.

Data set [2] concerns A2780 human ovarian cancer xenografts. Put plainly: Growth delay and survival of A2780 xenografts, PR-104 and docetaxel. It counts as in vivo, CD-1 nude mice. Here is the method:
(§2) End-point: After treatment, tumor size and body weights were measured regularly and mice were culled either when the average diameter of the tumor reached 15 mm (end-point), the tumor ulcerated or when the body weight change reached −15%. Experiment was ended and all remaining mice culled 120 days after treatment.
(§3) Analysis: End-points will be expressed as TTE50, Median RTV^4 and plotted in Kaplan-Meier Plots and analysed by Log Rank P statistical test.

Data set [3] relates to SiHa human cervical cancer xenograft. Put plainly: Growth delay and survival of SiHa xenograft, PR-104 and docetaxel. It counts as in vivo, Rag-1^null mice. An excerpt: Analysis: End-points will be expressed as TTE50, Median RTV^4 and plotted in Kaplan-Meier Plots and analysed by Log Rank P statistical test. Weight loss nadir will be compared between schedules.
Data set [4] deals with 22RV1 androgen-resistant human prostate cancer xenograft. Put plainly: Growth delay and survival of 22RV1 xenograft, PR-104 and docetaxel. It counts as in vivo, CD-1 nude mice. Here is the method:
as §2, §3

For data set [5], the system named is H460 human lung cancer xenografts. Put plainly: Growth delay and survival of H460 xenografts, PR-104, docetaxel and schedules thereof. It counts as in vivo, CD-1 nude mice. Here is the method:
Specific pathogen-free homozygous nu/nu (CD-1) nu/nu [NIH-III] (Charles River Laboratories, Wilmington, Mass.) were provided by the Animal Resources Unit (University of Auckland) at 7 to 9 weeks of age. Mice were housed in groups of 4-7 in a temperature-controlled room (22±2° C.) with a 12-hour light/dark cycle and were fed ad libitum water and a standard rodent diet (Harlan Teklad diet 2018i). All animals were uniquely identifiable by ear tag number. All animal protocols were approved by the Animal Ethics Committee of the University of Auckland (AEC approval C337).
A single cell suspension was prepared by trypsinisation (1× Trypsin/EDTA) from spinner culture, counted, and suspended in ∝MEM to give required cell concentration, as listed below. Mice were inoculated (100 μL) at a single subcutaneous site (right flank) using a 1 ml syringe with a 26 gauge needle.
Seven days post-inoculation, tumors were measured three times per week until they reached the treatment size (mean diameter 5.8-8.2 mm; average 7.0 mm). Mean tumor diameter was averaged from the longest diameter (length) multiplied by the perpendicular measurement (width). Tumor diameters were estimated when mean diameter was below 5 mm, and measured with electronic callipers when ≧5 mm.
Tumor volume was calculated using the formula:
where L=length and w=width in mm of the carcinoma.
as §1
Tumor bearing mice were assigned randomly to treatment groups when tumor diameter reached treatment size. Animals were rejected if xenografts show evidence of: (i) attachment to underlying muscle (due to risk of local invasion), (ii) signs of ulceration, or (iii) indolent tumor growth. Drug administration begins on the day of assignment. In general, 0.7-0.8 of the inoculated population is assigned to the experiment. Drug administration was undertaken as outlined above.
During and after treatment, tumor size and body weights were measured regularly. Animals were culled if (i) the average diameter of the tumor exceeds 15 mm (survival end-point), (ii) body weight loss exceeds 15% of pre-treatment value, (iii) there is evidence of prolonged or excessive morbidity, or (iv) tumor ulceration occurred. Each experiment was terminated at day 120 after treatment initiation.
Kaplan-Meier plots were constructed and median survival was calculated (TTE50). The statistical significance of any differences in overall survival between treatment groups and control was analysed by Log Rank P statistical test. The log-rank test was calculated using XLStat Life (Kovach Computing Services Ltd). The statistic significance in overall survival between each treatment group and control was determined by testing the null hypothesis that the survival curves are identical in the two populations.
The time for individual tumors to increase in volume by 4 fold relative to treatment day-1 (relative tumor volume×4−RTV^4) was recorded. The median RTV^4 is calculated for each group and the difference in RTV^4 between control and treatment groups is described as the Tumor Growth Delay (TGD) in days. RTV^4 values notmalise for any bias in tumor treatment volume on day-1. The RTV^4 of each treatment group is tested for statistical difference from control group by unpaired t-test and Mann Whitney U test (means and medians, respectively).
In circumstances where long-term controls (LTCs) occur, an RTV^4 value equal to the total duration of the experiment is assigned for the purposes of statistical analysis (usually 120 days). Where one or more LTC is present the median RTV^4 of each treatment group is tested for statistical difference from control group by Mann Whitney U test only. The statistical analysis was conducted at a p level of 0.05 (two-tailed). SigmaStat v3.10 was used for the statistical analysis of RTV^4 values. SigmaPlot v9 was used for all graph plots.
Weight loss nadirs (time independent maxima) were recorded for each treatment group.

Setting [6] is: A2780 xenograft, PR-104 652 mg/kg, docetaxel 73 mg/kg, q2w×2.
The mark [7] stands for this setting: Rag-1 mice, PR-104 652 mg/kg, docetaxel 73 mg/kg, q2w×2.
Where [8] appears, read: 22RV1 xenograft, PR-104 652 mg/kg, docetaxel 73 mg/kg, q2w×2.
Setting [9] is: H460 xenograft, PR-104 652 mg/kg, docetaxel 73 mg/kg, q2w×2.

Consider `CS(=O)(=O)OCCN(CCBr)c1ccc([N+](=O)[O-])c(C(=O)NCCCOP(=O)(O)O)c1[N+](=O)[O-]` [SN 29303, 2-[2-bromoethyl)-2,4-dinitro-3-({[3-(phosphonooxy)propyl]amino}carbonyl) anilino]ethyl methanesulfonate], for which, in data set [1], the “cell kill versus controls in excision assay (in words)” value was “moderate and significant cell killing”; the “Log Cell Kill versus controls (Mean ± SEM)” value was found to be 0.770.

Regarding `O=C(NCCOP(=O)(O)O)c1cc([N+](=O)[O-])cc([N+](=O)[O-])c1N(CCBr)CCBr` [SN 28343, 2-[Bis(2-bromoethyl)amino]-N-(2-hydroxyethyl)-3,5-dinitrobenzamide phosphate ester], in data set [1], the “cell kill versus controls in excision assay (in words)” value was “moderate and significant cell killing”; the “Log Cell Kill versus controls (Mean ± SEM)” value came out at 0.821.

For `CS(=O)(=O)OCCN(CCBr)c1c(C(=O)NCCOP(=O)(O)O)cc([N+](=O)[O-])cc1[N+](=O)[O-]` [PR-104, 2-[(2-bromoethyl)-2,4-dinitro-6-[[[2-(phosphonooxy)ethyl]amino]-carbonyl]anilino]ethyl methane sulfonate], the “Weight Loss Nadir (%)” value in data set [2] (A2780 xenograft, CD-1 nude mice, PR-104 652 mg/kg, docetaxel 73 mg/kg, i.p., q2w×2) is reported as −6.1±1.2%; in data set [3] (Rag-1 mice, PR-104 652 mg/kg, docetaxel 73 mg/kg, i.p., q2w×2) it was −2.2±1.2%; in data set [4] (22RV1 xenograft, CD-1 nude mice, PR-104 652 mg/kg, docetaxel 73 mg/kg, i.p., q2w×2), −2.1±0.5%; in data set [5] (H460 xenograft, CD-1 nude mice, mean body weight loss nadir, PR-104 652 mg/kg, docetaxel 73 mg/kg, i.p., q2w×2), −4.9 ± 1.0%. The “LTC (long term control)” value in data set [2] (A2780 xenograft, 120 day experiment) is recorded as 0; in data set [3] (Rag-1 mice, 120 day experiment), 0; in data set [4] (22RV1 xenograft, 120 day experiment) it was 0. The results for the “Median RTV^4” value in data set [2] (setting [6]), in data set [3] (setting [7]) and in data set [4] (setting [8]) were 8 days, 16 days and 23 days, respectively. In addition, the “TGD (relative gain in median RTV^4 versus control)” value was 78% and 77.8% in data set [2] (setting [6]); 33.3% in data set [3] (setting [7]). Further, the TTE50 in data set [2] (setting [6]) is given as 10 days; in data set [4] (setting [8]), 26.5 days. The “improvement in median tumor growth delay” value in data set [2] (A2780 xenograft, versus control) was found to be 3.5 days. The “Gain TTE50 (improvement in median survival)” value in data set [2] (A2780 xenograft, versus control (6 days)) is 4 days; in data set [3] (Rag-1 mice, versus control (17 days)), 8 days; in data set [4] (22RV1 xenograft, versus control (9.5 days)), 17 days; in data set [5] (H460 xenograft, versus control (11 days), PR-104 652 mg/kg, docetaxel 73 mg/kg, q2w×2), 18 days. For the same molecule, the “activity against A2780 xenograft (in words)” value in data set [2] (based on tumor growth delay) is “no activity”. The “activity against SiHa xenograft (in words)” value in data set [3] (Rag-1 mice) was “modestly active”. Also, the “TTE50 (median time for tumor end-point to occur)” value in data set [3] (setting [7]) turned out to be 25 days. Besides, the Day of death in data set [3] (Rag-1 mice, day of unscheduled death) is recorded as 14^B. The “improvement in tumor growth delay” value in data set [3] (Rag-1 mice, versus control) worked out at 4 days. Moreover, the Unscheduled deaths came out at 1 in data set [3] (female Rag-1 mice, total dose PR-104 652 mg/kg, docetaxel 73 mg/kg, i.p., q2w×2) and 0 in data set [5] (H460 xenograft, female CD-1 nude mice, total dose PR-104 652 mg/kg, docetaxel 73 mg/kg, i.p., q2w×2). In addition, the “activity against 22RV1 xenograft (in words)” value in data set [4] (22RV1 prostate xenograft model) was “modest single-agent antitumor activity”. For the same molecule, in data set [4] (setting [8]), the “TGD (relative gain in median RTV^4 versus control; TGI in text)” value stood at 156%. The “median tumor growth delay” value in data set [4] (22RV1 xenograft, versus control) is 14 days. Moreover, in data set [5] (H460 xenograft, 120 day experiment, PR-104 652 mg/kg, docetaxel 73 mg/kg, q2w×2), the “LTC (long term control, failed to reach end-point within duration of experiment)” value is given as 0. In addition, the “Median RTV^4 (median time for tumor volume to increase 4-fold)” value in data set [5] (setting [9]) came out at 23 days. The “TGD (tumor growth delay; relative gain in median RTV^4 versus control)” value in data set [5] (setting [9]) worked out at 187.5%. Moreover, in data set [5] (H460 xenograft, end-point >15 mm mean diameter, PR-104 652 mg/kg, docetaxel 73 mg/kg, q2w×2), the “TTE50 (median time for tumor end-point to occur from day of treatment)” value is recorded as 29 days. The “activity against H460 xenograft (in words)” value in data set [5] (tumor growth delay and survival end-points) was “significant single agent activity”.
